Data: ChEMBL document CHEMBL1134446, “Polyamine analogue antidiarrheals: a structure-activity study” (J Med Chem, 2001)
Values joined by “and” are separate entries in the source; they are usually repeats but may differ in a detail not shown here. Equal entries are not always repeated.

Tests used:
Assay type in all cases: functional
Rattus norvegicus [1] = test: Weight loss of rat over the 6-h experimental period when a dose of 6.11 mg/kg (11.6 administered
Rattus norvegicus [2] = test: Weight loss of rat over the 6-h experimental period when a dose of 30.4 mg/kg (57.8 administered
Rattus norvegicus [3] = test: Stool output of rat over the 6-h collection period when a dose of 1.22 mg/kg (2.3 administered
Rattus norvegicus [4] = test: Stool output of rat over the 6-h collection period when a dose of 6.11 mg/kg (11.6 administered
Rattus norvegicus [5] = test: Stool output of rat over the 6-h collection period when a dose of 30.4 mg/kg (57.8 administered
Rattus norvegicus [6] = test: Weight loss of rat over the 6-h experimental period when a dose of 0 mg/kg (0 administered
Rattus norvegicus [7] = test: Weight loss of rat over the 6-h experimental period when a dose of 1.22 mg/kg (2.3 administered
Rattus norvegicus [8] = test: Stool output of rat over the 6-h collection period when a dose of 0 mg/kg (0 administered
Rattus norvegicus [9] = test: Percent reduction was determined by using the ratio of mean of treated animal to that of control animal at a dose of 12.5 mg/kg
Rattus norvegicus [10] = test: Stool output of rat over the 6-h collection period when a dose of 50 mg/kg (115.6 uM) was given orally; conditions: route oral
Rattus norvegicus [11] = test: Percent reduction was determined by using the ratio of mean of treated animal to that of control animal at a dose of 2.5 mg/kg
Rattus norvegicus [12] = test: Stool output of rat over the 6-h collection period when a dose of 12.5 mg/kg (28.9 uM) was given orally; conditions: route oral
Rattus norvegicus [13] = test: Stool output of rat over the 6-h collection period when a dose of 2.5 mg/kg (5.8 administered
Rattus norvegicus [14] = test: Weight loss of rat over the 6-h experimental period when a dose of 12.5 mg/kg (28.9 uM) was given orally; conditions: route oral
Rattus norvegicus [15] = test: Stool output of rat over the 6-h collection period when a dose of 1 mg/kg (2.3 administered
Rattus norvegicus [16] = test: Weight loss of rat over the 6-h experimental period when a dose of 25 mg/kg (57.6 uM) was given orally; conditions: route oral
Rattus norvegicus [17] = test: Weight loss of rat over the 6-h experimental period when a dose of 50 mg/kg (115.6 uM) was given orally; conditions: route oral
Rattus norvegicus [18] = test: Percent reduction was determined by using the ratio of mean of treated animal to that of control animal at a dose of 1 mg/kg
Rattus norvegicus [19] = test: Weight loss of rat over the 6-h experimental period when a dose of 1 mg/kg (2.3 administered
Rattus norvegicus [20] = test: Stool output of rat over the 6-h collection period when a dose of 25 mg/kg (57.6 uM) was given orally; conditions: route oral
Rattus norvegicus [21] = test: Percent reduction was determined by using the ratio of mean of treated animal to that of control animal at a dose of 5 mg/kg
Rattus norvegicus [22] = test: Weight loss of rat over the 6-h experimental period when a dose of 5 mg/kg (11.6 administered
Rattus norvegicus [23] = test: Percent reduction was determined by using the ratio of mean of treated animal to that of control animal at a dose of 25 mg/kg
Rattus norvegicus [24] = test: Weight loss of rat over the 6-h experimental period when a dose of 2.5 mg/kg (5.8 administered
Rattus norvegicus [25] = test: Percent reduction was determined by using the ratio of mean of treated animal to that of control animal at a dose of 50 mg/kg
Rattus norvegicus [26] = test: Stool output of rat over the 6-h collection period when a dose of 5 mg/kg (11.6 administered
[27] = The acute toxicity was determined in female CD1 mice after (ip) administration; conditions: Mus musculus
Rattus norvegicus [28] = test: Stool output of rat over the 6-h collection period when a dose of 0 mg/kg (0 uM) was given orally; conditions: route oral
Rattus norvegicus [29] = test: Weight loss of rat over the 6-h experimental period when a dose of 0 mg/kg (0 uM) was given orally; conditions: route oral
Rattus norvegicus [30] = test: Stool output of rat over the 6-h collection period when a dose of 1.1 mg/kg (2.3 administered
Rattus norvegicus [31] = test: Stool output of rat over the 6-h collection period when a dose of 2.7 mg/kg (5.8 administered
Rattus norvegicus [32] = test: Stool output of rat over the 6-h collection period when a dose of 5.3 mg/kg (11.6 administered
Rattus norvegicus [33] = test: Weight loss of rat over the 6-h experimental period when a dose of 2.7 mg/kg (5.8 administered
Rattus norvegicus [34] = test: Weight loss of rat over the 6-h experimental period when a dose of 1.1 mg/kg (2.3 administered
Rattus norvegicus [35] = test: Weight loss of rat over the 6-h experimental period when a dose of 5.3 mg/kg (11.6 administered
Rattus norvegicus [36] = test: Weight loss of rat over the 6-h experimental period when a dose of 4.6 mg/kg (11.6 administered
Rattus norvegicus [37] = test: Stool output of rat over the 6-h collection period when a dose of 4.6 mg/kg (11.6 administered
Rattus norvegicus [38] = test: Percent reduction was determined by using the ratio of mean of treated animal to that of control animal at a dose of 10.7 mg/kg
Rattus norvegicus [39] = test: Stool output of rat over the 6-h collection period when a dose of 10.7 mg/kg (23.2 administered
Rattus norvegicus [40] = test: Percent reduction was determined by using the ratio of mean of treated animal to that of control animal at a dose of 5.3 mg/kg
Rattus norvegicus [41] = test: Weight loss of rat over the 6-h experimental period when a dose of 10.7 mg/kg (23.2 administered
Rattus norvegicus [42] = test: Weight loss of rat over the 6-h experimental period when a dose of 15 mg/kg (47.6 administered
Rattus norvegicus [43] = test: Stool output of rat over the 6-h collection period when a dose of 15 mg/kg (47.6 administered
Rattus norvegicus [44] = test: Weight loss of rat over the 6-h experimental period when a dose of 1 mg/kg (2.3 uMl) was administered
Rattus norvegicus [45] = test: Stool output of rat over the 6-h collection period when a dose of 25 mg/kg (57.8 administered
Rattus norvegicus [46] = test: Weight loss of rat over the 6-h experimental period when a dose of 25 mg/kg (57.8 administered
Rattus norvegicus [47] = test: Weight loss of rat over the 6-h experimental period when a dose of 47 mg/kg (116.25 uM) was given orally; conditions: route oral
Rattus norvegicus [48] = test: Weight loss of rat over the 6-h experimental period when a dose of 23.5 mg/kg (58.13 uM) was given orally; conditions: route oral
Rattus norvegicus [49] = test: Stool output of rat over the 6-h collection period when a dose of 94 mg/kg (232.5 uM) was given orally; conditions: route oral
Rattus norvegicus [50] = test: Weight loss of rat over the 6-h experimental period when a dose of 94 mg/kg (232.5 uM) was given orally; conditions: route oral
Rattus norvegicus [51] = test: Stool output of rat over the 6-h collection period when a dose of 47 mg/kg (116.25 uM) was given orally; conditions: route oral
Rattus norvegicus [52] = test: Stool output of rat over the 6-h collection period when a dose of 5.9 mg/kg (11.6 administered
Rattus norvegicus [53] = test: Weight loss of rat over the 6-h experimental period when a dose of 5.9 mg/kg (11.6 administered
Rattus norvegicus [54] = test: Stool output of rat over the 6-h collection period when a dose of 23.5 mg/kg (58.13 uM) was given orally; conditions: route oral

Compound: c1ccc(CNCCCNCCCCNCCCNCc2ccccc2)cc1
- Weight loss (Rattus norvegicus [1]): >13.1 g
- Weight loss (Rattus norvegicus [2]): >10.4 g
- Stool output (Rattus norvegicus [3]): >6.4 g (350g of rat weight)-1
- Stool output (Rattus norvegicus [4]): >6.3 g (350g of rat weight)-1
- Stool output (Rattus norvegicus [5]): >5 g (350g of rat weight)-1
- Weight loss (Rattus norvegicus [6]): 13.3 g
- Weight loss (Rattus norvegicus [7]): >13.5 g
- Stool output (Rattus norvegicus [8]): 6.2 g (350g of rat weight)-1

Compound: CC(C)NCCCNCCCCNCCCNC(C)C
- Reduction (Rattus norvegicus [9]): 49% and 50%
- Stool output (Rattus norvegicus [10]): <0 g (350g of rat weight)-1
- Reduction (Rattus norvegicus [11]): 64% and 100%
- Stool output (Rattus norvegicus [12]): <3.6 g (350g of rat weight)-1
- Stool output (Rattus norvegicus [13]): <0 g (350g of rat weight)-1
- Weight loss (Rattus norvegicus [14]): <8.7 g
- Stool output (Rattus norvegicus [15]): <2.9 g (350g of rat weight)-1
- Weight loss (Rattus norvegicus [16]): <3.6 g
- Weight loss (Rattus norvegicus [17]): <3.2 g
- Reduction (Rattus norvegicus [18]): 42% and 57%
- Weight loss (Rattus norvegicus [19]): <6.9 g
- Stool output (Rattus norvegicus [20]): <0 g (350g of rat weight)-1
- Reduction (Rattus norvegicus [21]): 63% and 87%
- Weight loss (Rattus norvegicus [22]): <4.4 g
- Weight loss (Rattus norvegicus [6]): 11.8 g
- Reduction (Rattus norvegicus [23]): 79% and 100%
- Weight loss (Rattus norvegicus [24]): <4.2 g
- Reduction (Rattus norvegicus [25]): 81% and 100%
- Stool output (Rattus norvegicus [26]): <0.9 g (350g of rat weight)-1
- LD50 [27]: 125 mg/kg
- Stool output (Rattus norvegicus [8]): 6.8 g (350g of rat weight)-1
- Stool output (Rattus norvegicus [28]): 7.2 g (350g of rat weight)-1
- Weight loss (Rattus norvegicus [29]): 17.2 g

Compound: CCCCNCCCNCCCCNCCCNCCCC
- Stool output (Rattus norvegicus [30]): >3.5 g (350g of rat weight)-1
- Stool output (Rattus norvegicus [31]): >4.2 g (350g of rat weight)-1
- Stool output (Rattus norvegicus [32]): >5.5 g (350g of rat weight)-1
- Weight loss (Rattus norvegicus [33]): >11.2 g
- Weight loss (Rattus norvegicus [6]): 13.6 g
- Weight loss (Rattus norvegicus [34]): >10.2 g
- Stool output (Rattus norvegicus [8]): 4.6 g (350g of rat weight)-1
- Weight loss (Rattus norvegicus [35]): >12 g

Compound: C(CCNC1CCNCC1)CNC1CCNCC1
- Weight loss (Rattus norvegicus [36]): >9.5 g
- Stool output (Rattus norvegicus [37]): >4.7 g (350g of rat weight)-1
- Weight loss (Rattus norvegicus [6]): 10 g
- Stool output (Rattus norvegicus [8]): 4.2 g (350g of rat weight)-1

Compound: CC(C)CNCCCNCCCCNCCCNCC(C)C
- Reduction (Rattus norvegicus [38]): 78%
- Stool output (Rattus norvegicus [39]): >1.6 g (350g of rat weight)-1
- Stool output (Rattus norvegicus [32]): >5.1 g (350g of rat weight)-1
- Reduction (Rattus norvegicus [40]): 39%
- Weight loss (Rattus norvegicus [6]): 18.2 g
- Weight loss (Rattus norvegicus [41]): <5 g
- Stool output (Rattus norvegicus [8]): 7.2 g (350g of rat weight)-1
- Weight loss (Rattus norvegicus [35]): <11.1 g

Compound: c1cc(NCCCCNc2ccncc2)ccn1
- Weight loss (Rattus norvegicus [42]): >14.4 g
- Stool output (Rattus norvegicus [43]): >6.9 g (350g of rat weight)-1
- Weight loss (Rattus norvegicus [6]): 13.3 g
- Stool output (Rattus norvegicus [8]): 5.6 g (350g of rat weight)-1

Compound: CCCNCCCNCCCCNCCCNCCC
- Weight loss (Rattus norvegicus [44]): <9.1 g
- Stool output (Rattus norvegicus [15]): >3.8 g (350g of rat weight)-1
- Reduction (Rattus norvegicus [18]): 31% and 37%
- Stool output (Rattus norvegicus [45]): <0 g (350g of rat weight)-1
- Reduction (Rattus norvegicus [21]): 56% and 55%
- Weight loss (Rattus norvegicus [22]): <5.7 g
- Weight loss (Rattus norvegicus [6]): 13.1 g
- Reduction (Rattus norvegicus [23]): 69% and 100%
- Stool output (Rattus norvegicus [26]): <2.7 g (350g of rat weight)-1
- Stool output (Rattus norvegicus [8]): 6 g (350g of rat weight)-1
- Weight loss (Rattus norvegicus [46]): <4 g

Compound: FC(F)(F)CNCCCNCCCCNCCCNCC(F)(F)F
- Weight loss (Rattus norvegicus [47]): <3.8 g
- Weight loss (Rattus norvegicus [48]): <6.2 g
- Stool output (Rattus norvegicus [49]): <0 g (350g of rat weight)-1
- Weight loss (Rattus norvegicus [50]): <2.8 g
- Stool output (Rattus norvegicus [51]): <0.6 g (350g of rat weight)-1
- Stool output (Rattus norvegicus [52]): >7.5 g (350g of rat weight)-1
- Weight loss (Rattus norvegicus [53]): >17.2 g
- Weight loss (Rattus norvegicus [6]): 18.2 g
- Stool output (Rattus norvegicus [8]): 7.2 g (350g of rat weight)-1
- Stool output (Rattus norvegicus [28]): 7.2 g (350g of rat weight)-1
- Stool output (Rattus norvegicus [54]): <1.9 g (350g of rat weight)-1
- Weight loss (Rattus norvegicus [29]): 15.1 g
